biological target: Dual specificity tyrosine-phosphorylation-regulated kinase 1A (Homo sapiens, UniProt Q13627); experiment: Binding affinity to DYRK1A (unknown origin)

Kd, 101 nM:
CC(=O)N1CC[C@H](n2c(C)nc3ccc(-c4ccncc4)nc32)C1

Kd, 0.5 nM:
c1cc(-c2ccc3ncn(-c4ccc5c(c4)OCO5)c3n2)ccn1
Cc1nc2ccc(-c3ccncc3)nc2n1-c1ccc2c(c1)OCC(=O)N2
O=C(O)c1ccc(-n2cnc3ccc(-c4ccncc4)nc32)cc1
COC(=O)c1ccc(-n2cnc3ccc(-c4ccncc4)c(F)c32)cc1
NC(=O)c1ccc(-n2cnc3ccc(-c4ccncc4)c(F)c32)nc1
Cc1nc2ccc(-c3ccncc3)nc2n1-c1ccc(CN2CCOCC2)cc1
Cc1nc2ccc(-c3cnn(C4CC4)c3)nc2n1-c1ccc(N2CCOCC2)c(F)c1
CC(=O)N1C[C@@H]2[C@H](C1)[C@H]2n1c(C)nc2ccc(-c3ccncc3)nc21
Fc1c(-c2ccncc2)ccc2ncn(-c3ccc4c(c3)OCO4)c12

Reference: ChEMBL document CHEMBL4725420, “Selective DYRK1A Inhibitor for the Treatment of Neurodegenerative Diseases: Alzheimer, Parkinson, Huntington, and Down Syndrome” (ACS Med Chem Lett, 2020)
